The values that follow come from patent US8283376B2, “Use of substituted 2-aminotetralins for preventive treatment of parkinson's disease” (UCB Pharma GmbH, priority 2003, dated 2012).

In assay [1] the test system is patients with Parkinson's disease. The note with it: cited from earlier work.
Assay [2] relates to monkeys (macaques) injected with MPTP. In words: Progressive MPTP primate model of morbus Parkinson (pilot study). The class given is in vivo. How it is done:
In the model used, which reflects the progressive course of morbus Parkinson in primates, monkeys (macaques) were injected with subliminal toxic doses of MPTP for several days. Parkinson's symptoms developed in the model over a period of approximately 2 weeks. As soon as a certain level of damage had been reached, rotigotine was injected daily in a formulation that produced a continuous plasma level over 24 hours. The MPTP injections were stopped as soon as the motor activity had been reduced to a certain extent (approximately 5 days later). The behavior of the animals was assessed on a daily basis. […] A group of animals was killed at the end of both the rotigotine administration and the clearance phase, and the condition of the basal ganglia was histologically and biochemically examined.

Assay [3] concerns neurones of the substantia nigra. In words: Acute MPTP model (including apoptosis), FluoroJade staining of degenerating neurones. Format: in vivo. The settings on record: mouse; for No. of degenerating neurones: FluoroJade staining. How it is done:
(§1) The 2-aminotetralins according to the invention, in particular rotigotine, thereby display a neuroprotective effect in a mouse model of Parkinson's disease: Following the acute administration of MPTP, which causes Parkinson's syndrome in both humans and monkeys, the number of the degenerating neurones in the acute phase was measured on the one hand (Table 1) and the functional integrity of the striatum in the sub-acute phase was ascertained on the other by determining the density of the dopamine transporter in the terminal nerve endings (FIGS. 1 and 2).
For the purpose of intoxication, 80 mg/kg of the neurotoxin 1-methyl-4-phenyl-1,2,3,6-tetrahydro-pyridine (MPTP) were administered to mice (in doses of 20 mg/kg at two-hour intervals), which led to the degeneration of approximately 50 to 60% of the neurones of the substantia nigra. Approximately 16 hours beforehand, rotigotine was administered in doses of 0.3, 1 or 3 mg/kg respectively, as the so-called “slow-release formulation”. Diffusion and absorption latencies led to rotigotine then being optimally available when MPTP was administered. The animals were killed after 24 hours and their brains fixed. The brain sections were stained with FluoroJade to identify degenerating cells. The immunohistochemical marking of tyrosine-hydroxylase helped to identify dopaminergic neurones.

Assay [4] relates to dopamine transporters in the striatum. The experiment in a line: Sub-acute MPTP model, dopamine transporter density in the striatum ([125I]PE2I binding). Format: in vivo, mice. How it is done:
Groups 1 to 7 were treated as follows: Group 1: untreated control group; Group 2: control group treated with a vehicle solution for rotigotine and MPTP; Group 3: MPTP treatment; Group 4: MPTP treatment plus rotigotine 0.3 mg/kg; Group 5: MPTP treatment plus rotigotine 1.0 mg/kg; Group 6: MPTP treatment plus rotigotine 3.0 mg/kg; Group 7: treatment solely with rotigotine (3.0 mg/kg).
as §1
For the purpose of intoxication, 80 mg/kg of the neurotoxin 1-methyl-4-phenyl-1,2,3,6-tetrahydro-pyridine (MPTP) were administered to mice (in doses of 20 mg/kg at two-hour intervals, groups 3 to 6 in FIGS. 1 and 2), which led to the degeneration of approximately 50 to 60% of the neurones of the substantia nigra (maximum degeneration in group 3 in FIGS. 1 and 2). […]

In the case of `CCCN(CCc1cccs1)C1CCc2c(O)cccc2C1` (single isomer, unassigned; (-)) [rotigotine, (−)-5,6,7,8-tetrahydro-6-[propyl[2-(2-thienyl)ethyl]amino]-1-naphthol], the Dyskinesias result in assay [1] (patients with pronounced dyskinesias, Metman et al. (2001)) is listed as “improved”. Further, the “UPDRS (Unified Parkinson's Disease Rating Scale) score” value in assay [1] (transdermal administration, patients with Parkinson's disease, WO 02/089777) was “improvement”. In assay [2] (compared to untreated animals), the “Density of the nerve endings in the striatum” value is on record as “significantly increased”. Further, the “Motor activity of the animals” value in assay [2] (daily rotigotine injections, during treatment and in the following clearance phase) is listed as “clearly improved”. In assay [2] (following treatment and the clearance phase), the “Content of pre-pro-enkephalin (basal ganglia)” value is reported as “showed a tendency towards normalisation”. For the same molecule, the “No. of degenerating neurones” value in assay [3] (MPTP intoxication + rotigotine 0.3 mg/kg) was 66.7; in assay [3] (MPTP intoxication + rotigotine 1.0 mg/kg), 76.8; in assay [3] (MPTP intoxication + rotigotine 3.0 mg/kg), 34.9; in assay [3] (MPTP-vehicle + rotigotine 3.0 mg/kg (no MPTP)), 3.8. Also, in assay [3] (acute MPTP model, 24 hours, treated vs untreated animals), the “Staining of tyrosine hydroxylase (dopaminergic neurones)” value was “did not display any differences between the treated and untreated animals”. Moreover, in assay [3] (acute MPTP model, versus MPTP intoxication), the “Reduction of the number of degenerating neurones following application of rotigotine” value is reported as “approximately 50%”. Also, the “Number of degenerating neurones in the mesencephalon” value in assay [3] (acute phase after MPTP) is given as “reduced”. Moreover, in assay [4] (mice, MPTP 80 mg/kg, rotigotine 0.3, 1 or 3 mg/kg daily for 7 days, slow-release formulation), the “Survival of the neurones and their nerve endings (dopamine transporter density in the striatum)” value is “improved the survival of the neurones and their nerve endings depending on the dosage”. For the same molecule, in assay [4] (mouse, sub-acute phase after MPTP), the “Dopaminergic innervation of the striatum (density of the dopamine transporter)” value was “almost completely maintained or restored”.
